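Cells were grown in 96-well plates and exposed to each compound for 48 hours at five concentrations; endpoints were interpolated linearly between bracketing concentrations, or set to the highest concentration if not reached. Here, GI50 denotes the concentration required for 50% inhibition of growth. Definition used: TGI = concentration required for complete inhibition of growth.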
Key:
Test in all cases: DTP human tumour cell line panel, 48 h
[1] = test system: SK-OV-3 ovarian
[2] = test system: KM12 colon
[3] = test system: MDA-MB-435
[4] = test system: SN12C renal
[5] = test system: HCC-2998 colon
[6] = test system: SNB-19 CNS
[7] = test system: A498 renal
[8] = test system: UACC-62 melanoma
[9] = test system: UACC-257 melanoma
[10] = test system: NCI-H522 lung
[11] = test system: SR leukemia
[12] = test system: T-47D breast
[13] = test system: U251 CNS
[14] = test system: LOX IMVI melanoma
[15] = test system: NCI-H23 lung
[16] = test system: OVCAR-3 ovarian
[17] = test system: NCI-H460 lung
[18] = test system: SK-MEL-28 melanoma
[19] = test system: PC-3 prostate
[20] = test system: HL-60(TB) leukemia
[21] = test system: MDA-MB-468 breast
[22] = test system: RPMI-8226 leukemia
[23] = test system: HOP-92 NSCLC
[24] = test system: HT29 colon
[25] = test system: OVCAR-8 ovarian
[26] = test system: RXF 393 renal
[27] = test system: ACHN renal
[28] = test system: SF-539 CNS
[29] = test system: MCF7 breast
[30] = test system: OVCAR-5 ovarian
[31] = test system: SW-620 colon
[32] = test system: NCI/ADR-RES ovarian
[33] = test system: IGROV1 ovarian
[34] = test system: MOLT-4 leukemia
[35] = test system: TK-10 renal
[36] = test system: SF-268 CNS
[37] = test system: NCI-H226 lung
[38] = test system: 786-0 renal
[39] = test system: SF-295 CNS
[40] = test system: COLO 205 colon
[41] = test system: SK-MEL-2 melanoma
[42] = test system: EKVX NSCLC
[43] = test system: SNB-75 CNS
[44] = test system: A549 NSCLC
[45] = test system: MALME-3M melanoma
[46] = test system: CAKI-1 renal
[47] = test system: MDA-MB-231 breast
[48] = test system: SK-MEL-5 melanoma
[49] = test system: HS 578T breast
[50] = test system: UO-31 renal
[51] = test system: HCT-116 colon
[52] = test system: DU-145 prostate
[53] = test system: HCT-15 colon
[54] = test system: K-562 leukemia
[55] = test system: CCRF-CEM leukemia
[56] = test system: HOP-62 NSCLC
[57] = test system: M14 melanoma
[58] = test system: OVCAR-4 ovarian
[59] = test system: BT-549 breast

CC1(c2ccccc2)NC(=O)N(CC(=O)Nc2ccc(C(=O)/C=C/c3ccc(Cl)cc3)cc2)C1=O (stereo not drawn)
GI50 [1]: 16 µM | TGI [1]: 44.6 µM | GI50 [2]: 2.54 µM | TGI [2]: 6.87 µM | GI50 [3]: 2.15 µM | TGI [3]: 4.83 µM | GI50 [4]: 7.96 µM | TGI [4]: 25.4 µM | GI50 [5]: 1.79 µM | TGI [5]: 3.63 µM | GI50 [6]: 11.2 µM | TGI [6]: 24.4 µM | GI50 [7]: 14.4 µM | TGI [7]: 38.2 µM | GI50 [8]: 4.07 µM | TGI [8]: 17.8 µM | GI50 [9]: 11.3 µM | TGI [9]: 25.7 µM | GI50 [10]: 6.69 µM | TGI [10]: 30 µM | GI50 [11]: 2.99 µM | TGI [11]: > 100 µM | GI50 [12]: 2.59 µM | TGI [12]: 14.6 µM | GI50 [13]: 3.16 µM | TGI [13]: 14.3 µM | GI50 [14]: 2.95 µM | TGI [14]: 11.1 µM | GI50 [15]: 11.7 µM | TGI [15]: 24.8 µM | GI50 [16]: 7.1 µM | TGI [16]: 21.9 µM | GI50 [17]: 12 µM | TGI [17]: 27.8 µM | GI50 [18]: 10.8 µM | TGI [18]: 23.2 µM | GI50 [19]: 3.61 µM | TGI [19]: 27.6 µM | GI50 [20]: 4.06 µM | TGI [20]: 30.9 µM | GI50 [21]: 2.85 µM | TGI [21]: 12.3 µM | GI50 [22]: 1.93 µM | TGI [22]: 5.07 µM | GI50 [23]: 6.25 µM | TGI [23]: 53.7 µM | GI50 [24]: 3.7 µM | TGI [24]: 15.7 µM | GI50 [25]: 10.7 µM | TGI [25]: 52.5 µM | GI50 [26]: 2.97 µM | TGI [26]: 13.6 µM | GI50 [27]: 4.92 µM | TGI [27]: 17.7 µM | GI50 [28]: 6.15 µM | TGI [28]: 19.1 µM | GI50 [29]: 1.96 µM | TGI [29]: 5.28 µM | GI50 [30]: 13.3 µM | TGI [30]: 29 µM | GI50 [31]: 5.93 µM | TGI [31]: 20.7 µM | GI50 [32]: 13.5 µM | TGI [32]: 46.4 µM | GI50 [33]: 9.27 µM | TGI [33]: 22.3 µM | GI50 [34]: 3.02 µM | TGI [34]: 23.1 µM | GI50 [35]: 10.8 µM | TGI [35]: 35.4 µM | GI50 [36]: 6.51 µM | TGI [36]: 31.5 µM | GI50 [37]: 9.09 µM | TGI [37]: 52.3 µM | GI50 [38]: 7.48 µM | TGI [38]: 21 µM | GI50 [39]: 4.34 µM | TGI [39]: 16.6 µM | GI50 [40]: 13.2 µM | TGI [40]: 29.7 µM | GI50 [41]: 11.5 µM | TGI [41]: 28 µM | GI50 [42]: 4.64 µM | TGI [42]: 23.5 µM | GI50 [43]: 1.48 µM | TGI [43]: 21.8 µM | GI50 [44]: 4.25 µM | TGI [44]: 20 µM | GI50 [45]: 13.1 µM | TGI [45]: 30.8 µM | GI50 [46]: 5.51 µM | TGI [46]: 20.7 µM | GI50 [47]: 5.97 µM | TGI [47]: 21.6 µM | GI50 [48]: 4.72 µM | TGI [48]: 16.6 µM | GI50 [49]: 12.7 µM | TGI [49]: > 100 µM | GI50 [50]: 4.06 µM | TGI [50]: 18 µM | GI50 [51]: 1.37 µM | TGI [51]: 2.8 µM | GI50 [52]: 12.3 µM | TGI [52]: 26.2 µM | GI50 [53]: 4.55 µM | TGI [53]: 18.4 µM | GI50 [54]: 3.09 µM | TGI [54]: 13.1 µM | GI50 [55]: 4 µM | TGI [55]: 30.8 µM | GI50 [56]: 12.5 µM | TGI [56]: 29.8 µM | GI50 [57]: 3.22 µM | TGI [57]: 12 µM | GI50 [58]: 7.35 µM | TGI [58]: 36.1 µM | GI50 [59]: 4.78 µM | TGI [59]: 19 µM
